Patent US6331642A, “Vitamin D3 analogs” (Hoffmann-La Roche Inc., priority 2000, dated 2001)
Like-named read-outs stand apart in the source and are kept apart here.

Assays:
[1] = test system: myeloid leukemia cell line (HL-60); assay: Clonogenic assay in soft agar, HL-60; type: cell-based; details: Homo sapiens, HL-60 cells, read-out: ED50 (effective dose that inhibited 50% colony formation)
Experimental: (§1) Cell lines. The breast cancer cell line (MCF-7), prostate cancer cell line (LNCaP) and myeloid leukemia cell line (HL-60) were maintained as follows: MCF-7 cells were maintained in Dulbecco's Modified Eagle Media (DMEM) with 10% fetal calf serum (FCS); LNCaP and HL-60 were cultured in RPMI1640 with 10% FCS; All three cell lines were maintained in a 37° C. incubator containing 5% CO2.
(§2) Vitamin D3 Compounds. The vitamin D3 compounds were dissolved in absolute ethanol at 10^-3 M as stock solution, which were stored at -20° C. and protected from light. For in vitro use, compounds were diluted in DMEM or RPMI medium. For in vivo use, compounds were diluted with phosphate buffered saline (PBS). […]. Washed single-cell suspensions of cells were enumerated and plated into 24-well flat-bottomed plates with a total of […] cells/well in a volume of 400 μl/well. The feeder layer was prepared with agar that had been equilibrated at 42° C. Prior to this step, compounds were pipetted into wells. After incubation, the colonies were counted. All experiments were done at least three times using triplicate plates per experimental point.
(§3) Effect of Vitamin D3 analogs on Clonogenic Assay. […]

[2] = Serum calcium levels, adult female rats, day 7 of oral dosing; type: in vivo; details: for Serum Calcium Mean: vehicle 9.65
Experimental: Three month old adult female rats were used. […] On day 7 of dosing, animals were bled and serum calcium levels were determined. Compound was dissolved in 200 proof ethanol to produce a concentration of 100 μg/ml. […] Dose volume was calculated using the dosing group average body weight. Serial dilutions of vehicle dissolved compound were done to appropriate dosage concentrations. Blood (1.5 ml) was collected from each animal by orbital puncture under ether anesthesia on Day 7 of dosing. Blood was collected into serum separator tubes, centrifuged at 2000 rpm for 15 minutes and then serum aliquoted for calcium determinations. Serum calcium was determined by colorimetric assay.

p27^kip1 = assay: Western blot analysis, p27^kip1 in HL-60 cells; type: cell-based
Experimental: Western Blot Analysis. Cells were washed twice with PBS, suspended in Lysis buffer (50 mM Tris Ph 8.0, 150 mM NaCl, 0.1% SDS, 0.5% sodium deoxycholate, 1% NP40, 100 μg/ml phenylmethylsulfonyl fluoride, 2 μg/ml aprotinin, 1 μg/ml pepstatin and 10 μg/ml leupeptin), and placed on ice for 30 minutes. After centrifugation at 15,000 g for 20 minutes at 4° C., the supernatant was collected. Protein concentrations were quantitated. […] Blots were developed.
The dose-dependent effect of the vitamin D3 compounds on expression of p27^kip1 HL-60 cells was examined.

sebaceous glands = assay: Sebaceous gland area, hamster ear (image analysis); type: in vivo, Golden Syrian hamsters; details: 4 weeks
Experimental: (§4) Two hundred μl of (1,25)OH2 -16-ene-5,6-trans D3 was dissolved in propylene glycol, administered daily (5 days per week) by gavage to […] Golden Syrian hamsters. The animals were sacrificed at 4 weeks and the ears were processed for histological evaluation. The area of the sebaceous glands was measured on histologically prepared cross sections of the ear by image analysis.

seminal vesicles = assay: Antiandrogenic activity in castrated testosterone stimulated hamsters, seminal vesicles; type: in vivo, male Syrian hamsters
Experimental: 1,25(OH)2 -16-ene-5,6-trans D3 was evaluated for antiandrogenic activity in castrated, testosterone stimulated male Syrian hamsters.
[…] Both compounds were administered in a vehicle of 0.2 ml sesame oil each. Necropsy was performed on day 15. The prostate and seminal vesicles were removed, blotted and weighed. Data were analyzed for statistical significance using the Student's t-test and are expressed as percent inhibition of stimulated response.

[3] = test system: breast cancer cell line (MCF-7); assay: Clonogenic assay in soft agar, MCF-7; type: cell-based; details: Homo sapiens, MCF7, MCF-7 cells, read-out: ED50 (effective dose that inhibited 50% colony formation)
Experimental: as §1, §2, §3

[4] = Serum calcium levels in ovariectomized rats; type: in vivo, adult female rats; details: ovx rats, Ovx/Veh. 10.41
Experimental: Three month old adult female rats were subjected to bilateral ovariectomy or sham surgery. […] Dose volume was calculated weekly using the group average body weight. Dosing started 17 days post surgery and continued for 19 days. On the 20th day animals were euthanized by carbon dioxide inhalation and left femurs excised.
Blood (1.5 ml) was collected from each animal by orbital puncture under ether anesthesia on day 7 and day 18 of dosing. Blood was collected into serum separator tubes, centrifuged at 2000 rpm for 15 min. and then serum aliquoted for calcium determinations. Serum calcium was determined by colorimetric assay.
For a verification of the effect of ovariectomy on bone calcium, the sham and ovx vehicle groups were compared using student's t-test. The ovx groups were compared by one-way analysis of variance (ANOVA), followed by Fisher's LSD to compare each treatment group to vehicle when the overall effect was statistically significant.

ear total lipid fraction = assay: Total lipid fraction of hamster ear; type: in vivo, Golden Syrian hamsters; details: 4 weeks
Experimental: as §4
Also examined was the total lipid fraction from one of the ears (extraction by organic solvent followed by weighing the remaining lipid material).

[5] = test system: prostate cancer cell line (LNCaP); assay: Clonogenic assay in soft agar, LNCaP; type: cell-based; details: Homo sapiens, LNCaP cells, read-out: ED50 (effective dose that inhibited 50% colony formation)
Experimental: as §1, §2, §3

[6] = Serum calcium levels in vivo, mice; set-up: species or system male Balb/c mice; details: for survival: 3 weeks of study
Experimental: Serum Calcium Levels in vivo. Twenty-eight male Balb/c mice at 8 to 9 weeks of age were maintained in pathogen-free conditions and fed a standard laboratory diet. Four mice per group were injected intraperitoneally every other day (except Saturday and Sunday) with either vitamin D3 compound or diluant (100 μl/mouse) for 3 weeks. Doses of 1,25(OH)2-16-ene-5,6-trans-D3 were: 0.1, 0.5, 1.0, and 2.0 μg. Doses of 1,25(OH)2 D3 were 0.1 μg/mouse. Control mice were injected with 100 μl of PBS. Serum calcium values were measured every week by the quantitative, colorimetric detection assay.
Serum Calcium Levels in vivo. Because hypercalcemia is a major toxicity of vitamin D3 compounds, the calcemic effects of 1,25(OH)2 D3 were compared with 1,25(OH)2 -16-ene-5,6-trans-D3.

**Q.** With C=C1/C(=C/C=C2\CCC[C@]3(C)C([C@H](C)CCCC(C)(C)O)=CC[C@@H]23)C[C@@H](O)C[C@@H]1O [1,25(OH)2-16-ene-5,6-trans-D3, 1,25-Dihydroxy-16-ene-5,6-trans-cholecalciferol] as the compound, how does the IC50 [1] read?
**A.** The IC50 was 0.03 nM.

**Q.** What about the “Serum Calcium Mean” value ([2]; 0.5 μg/kg/day oral) of the same compound?
**A.** Its value is 10.64 mg/dL.

**Q.** And the “Serum Calcium Mean” value ([2]; 1 μg/kg/day oral)?
**A.** Its value is 10.06 mg/dL.

**Q.** What about the “Serum Calcium Mean” value ([2]; 1.5 μg/kg/day oral) of the same compound?
**A.** Its value is 9.92 mg/dL.

**Q.** And the “Serum Calcium Mean” value ([2]; 2 μg/kg/day oral)?
**A.** Its value is 9.77 mg/dL.

**Q.** What about the serum calcium levels ([2]; up to 2 μg/kg/day oral) of the same compound?
**A.** The serum calcium levels was “within the normal range”.

**Q.** And the “expression of p27^kip1” value (p27^kip1)?
**A.** Its value is “up-regulated”.

**Q.** What about the “expression of p27^kip1” value (p27^kip1; 4 days, 10^-9 M) of the same compound?
**A.** The value was “markedly increased”.

**Q.** And the “sebaceous gland area, % Change from Control” value (“sebaceous gland area, % Change” for short) (sebaceous glands; 0.01 μg/day gavage)?
**A.** Its value is -5%.

**Q.** What about the “sebaceous gland area, % Change” value (sebaceous glands; 0.1 μg/day gavage) of the same compound?
**A.** The value was -23%.

**Q.** What about the “sebaceous gland area, % Change” value (sebaceous glands; 1 μg/day gavage) of the same compound?
**A.** Its value is -50%.

**Q.** And the “sebaceous gland area, % Change” value (sebaceous glands; 10 μg/day gavage)?
**A.** The value was -50%.

**Q.** What about the “androgen-induced hypertrophy of the seminal vesicles” value (seminal vesicles; castrated, testosterone stimulated hamsters) of the same compound?
**A.** The value was “substantially suppressed”.

**Q.** What about the “Seminal vesicles Inhib. (percent inhibition of stimulated response)” value (seminal vesicles; testosterone + 0.1 μg compound s.c. daily, 14 days) of the same compound?
**A.** The value was 48%.

**Q.** And the Seminal vesicles weight (seminal vesicles; testosterone + 0.1 μg compound s.c. daily, 14 days, mg ± SEM)?
**A.** The Seminal vesicles weight was 71 ± 1 mg.

**Q.** And the IC50 [3]?
**A.** The IC50 was 4.3 nM.

**Q.** What about the “Serum Calcium” value ([4]; 2.000 μg/kg oral) of the same compound?
**A.** The value was 9.98 mg/dL.

**Q.** What about the “total lipid fraction, % Change from Control” value (shortened to “total lipid fraction, % Change”) (ear total lipid fraction; 0.01 μg/day gavage) of the same compound?
**A.** Its value is -26%.

**Q.** And the “total lipid fraction, % Change” value (ear total lipid fraction; 0.1 μg/day gavage)?
**A.** The value was -25%.

**Q.** What about the “total lipid fraction, % Change” value (ear total lipid fraction; 1 μg/day gavage) of the same compound?
**A.** The value was -37%.

**Q.** And the “total lipid fraction, % Change” value (ear total lipid fraction; 10 μg/day gavage)?
**A.** The value was -56%.

**Q.** What about the IC50 [5] of the same compound?
**A.** The IC50 was 1.4 nM.

**Q.** And the serum calcium level ([6]; 0.1-2.0 μg/mouse i.p. every other day, 3 weeks, control mice 8-9 mg/dl)?
**A.** Its serum calcium level is 8 to 10 mg/dL.

**Q.** And the “serum calcium level compared with control mice” value ([6]; 0.1-2.0 μg/mouse i.p., 3 weeks)?
**A.** The value was “almost the same calcium level”.

**Q.** And the survival [6]?
**A.** The survival was “All mice survived”.

**Q.** With C=C1/C(=C\C=C2/CCC[C@]3(C)[C@@H]([C@H](C)CCCC(C)(C)O)CC[C@@H]23)C[C@@H](O)C[C@@H]1O [1,25(OH)2 D3, reference compound] as the compound, how does the “expression of p27^kip1” value (p27^kip1) read?
**A.** Its value is “up-regulated”.

**Q.** And the “levels of p27^kip1” value (p27^kip1; 10^-8-10^-7 M)?
**A.** The value was “increased prominently”.

**Q.** And the “androgen-induced hypertrophy of the seminal vesicles” value (seminal vesicles; non-toxic doses (1 μg))?
**A.** Its value is “inactive”.

**Q.** What about the “Serum Calcium” value ([4]; dose printed 0500 μg/kg oral) of the same compound?
**A.** The value was 11.74 mg/dL.

**Q.** What about the hypercalcemia ([6]; 0.1 μg/mouse i.p. every other day, 3 weeks) of the same compound?
**A.** Its hypercalcemia is “all hypercalcemic”.

**Q.** What about the serum calcium level ([6]; 0.1 μg/mouse i.p. every other day, 3 weeks, normal 8.5-10.5 mg/dl) of the same compound?
**A.** Its serum calcium level is “approximately 12 mg/dl”.

**Q.** What about the survival [6] of the same compound?
**A.** The survival was “All mice survived”.
